Values after ≈ are worked out from the molar mass of the structure shown. Read-outs that look alike come from different tables or passages of the source.

This note sets out measurements from patent EP0490598A1 (priority 1990, dated 1992).

Assay [1] relates to P-388 cells. The assay can be described thus: Antitumoral assay, P-388 cell growth (cell counting). Type of assay: cell-based, mouse. As to conditions: for IC50: Mus musculus. How it is done: (§1) Pateamine was diluted in MeOH/CH₂Cl₂ 1:1 at 100 ng/ml and it has been tested at different concentrations. The solvent was allowed to evaporate before the cells were seeded.
Four general anitumoural assays, employing the current screening protocols have been carried out using the following cells: P-388 (lymphoid neoplasm from DBA/2 mouse) A-549 (human lung carcinoma) HT-29 (human colon carcinoma) KB (human oral epidermoid carcinoma)
P-388 cells were seeded into 16 mm wells at 1 x 10⁴ per well in […] aliquots of MEM 10FCS containing the indicated concentration or drug. All determinations were carried out in duplicate. After three days of incubation cells were counted and the IC₅₀ was determined.

Assay [2] relates to BHK cells. The assay can be described thus: Cytotoxicity assay, BHK cell growth (cell counting). Type of assay: cell-based, hamster. The conditions noted are these: Mesocricetus auratus, 72 h, three days of incubation, read-out: IC50 ng/ml approx. How it is done: as §1
It has been done two kinds of cytotoxicity assays, one of them employing the same screening protocols and another one with the MTT method. In both cases the cells were: CV-1 (monkey kidney fribroblast) BHK (hamster kidney fibroblast)
BHK cells were seeded into 16 mm wells at 2 x 10⁴ per well. The day after the inoculum was replaced by 1 ml aliquots of MEM 10FCS containing the indicated concentration of drug. All determinations were carried out in duplicate. After three days of incubation cells were counted and the IC₅₀ was determined.

Assay [3] deals with VSV (vesicular stomatitis virus). Type of assay: cell-based. The conditions noted are these: VSV in BHK cells.
The test system of assay [4] is murine lymphocytes. The assay can be described thus: Mixed Lymphocyte Reaction (MLR) assay. Format: cell-based, mice. As to conditions: Mus musculus, two-way MLR, Balb/c and C57B1/6 lymphocytes, 96 hours, 3H-thymidine. How it is done:
(§2) Murine lymphocytes were derived by splenectomy, under sterile conditions, from Balb/c and C57B1/6 mice sacrificed by cervical dislocation. Spleens were homogenized in 15 mM RPMI medium […], 87%; fetal calf serum, 10%; L-glutamine (200 mM), 2% and supplemented with 1% antibiotic-antimycotic solution (GIBCO) and 25 µg/ml gentamycin. Red blood cells were lysed by brief exposure to sterile, distilled water and subsequently reconstituted to normal tonicity with PBS (10x). The final cell preparation was enumerated, and the viability evaluated, by means of a hemacytometer using the trypan blue exclusion method.
The MLR is an in vitro test of cellular immunity in which murine lymphocytes from genetically dissimilar animals are cocultured to mutually induce cell proliferation (i.e. two-way MLR method). […] Data from the MLR is generated as dpm of radioactivity which is then expressed as a percentage of cellular activity, relative to control, using the following reduced formula: (Experimental value - (Balb/c - C57B1/6 - Media))/(Positive Control - (Balb/c - C57B1/6 - Media))x 100 [formula] […]
Reconstituted compound at each of several concentrations was added in duplicate (10µl) into wells of a 96-well microtiter plate and evaporated to dryness at room temperature. […] The radioactivity from DNA-bound 3H thymidine was counted using a dry INOTECH counter. Results were calculated as described above.

In assay [5] the test system is Balb/c lymphocytes. The assay can be described thus: Lymphocyte Viability (LCV) assay, MTT. As to conditions: Mus musculus, 96 hours, 50% viability. Type of assay: cell-based, mice. The method, then:
as §2
The LCV is an in vitro cytotoxicity assay for murine lymphocytes designed by the investigator. […] The percent viable cells is determined by the MTT-thiazolyl blue method after a similar incubation in the MLR of lymphocytes with the test sample. […] If there is no significant reduction in cell viability, as determined by this detection method, then damaged cells are probably not present for low data values generated in the MLR. Colorimetric data from the LeV is calculated as a percentage of viability, relative to control, using the following formula: (Experimental value - (Nonspecific Color))/(Positive Control - (Media))x 100 [formula] […]

Turning to `CC(/C=C/C(C)=C/C1Cc2nc(cs2)C(C)CC(N)CC(=O)OC(C)C/C(C)=C/C=C\C(=O)O1)=C\CN(C)C` (centres unmarked) [PATEAMINE, pateamine], the “% Inhibition P-388 cell growth” value in assay [1] (0.1ng, three days of incubation) was found to be 11%; in assay [1] (1ng, three days of incubation) it was 100%; in assay [1] (5ng, three days of incubation), 100%; in assay [1] (10ng, three days of incubation) it was 100%. For the same compound, the IC50 in assay [1] (P388, 72 h, P-388, three days of incubation, read-out: IC50 ng/ml approx.) was approximately 0.3 ng/mL (≈ 0.54 nM); in assay [1] (P388, read-out: IC50), 0.15 ng/mL (≈ 0.27 nM); in assay [2], approximately 3 ng/mL (≈ 5.4 nM); in assay [4], less than 1.5 ng/mL; in assay [5] it was 4100 ng/mL (≈ 7380 nM). This compound yielded an IC50 ng/disk in assay [3] of more than 10 ng/disk. Besides, the “% Inhibition BHK/VSV (sign for plaque reduction)” value in assay [3] (10ng) was 14 - (The sign (-), indicates no inhibition of virus replication.).
